The results in this text go back to patent publication US20260053834A1, “COVALENT MODIFIERS OF AKT1 AND USES THEREOF” (Terremoto Biosciences, Inc., priority 2023, published 2026).

Experiment [1] concerns LAPC4 prostate cancer cells, which express the AKT1 E17K allele. The experiment is described as follows: Antiproliferative effects in LAPC4 cells (CellTiter Glo, 72 h). The experiment is classed as cell-based. The conditions noted are these: Homo sapiens, LAPC4, 72 h, read-out: LAPC4 proliferation IC50: GeoMean IC50. The method, then:
Antiproliferative effects in LAPC4 cells. LAPC4 prostate cancer cells (Klein, K. A. et al. Nat Med 1997, 3, 402-408), which express the AKT1 E17K allele, were grown in IMDM media (Hyclone) supplemented with 12% FBS+1% P/S. To assess compound effects on growth, 1,000 cells/well were seeded in 384 well assay plates, incubated with compound dilutions dissolved in DMSO. After 72 h, intracellular ATP content was assessed with CellTiter Glo reagent (Promega) according to the manufacturer's instructions. IC50 values were calculated by fitting luminescence values to a log(inhibitor) vs. response Hill equation.
Background: ATP-based viability assays read luminescence as a measure of living cells.

The next experiment addresses T1, AKT1 WT (Homo sapiens, UniProt P31749).
T1 construct: expressed in transfected cells; host or cells: HEK293
Description: Live cell target engagement by NanoBRET competitive probe displacement, AKT1 WT. The experiment is classed as binding. The following applies: transfected HEK293 cells, 2 h at 37° C., read-out: AKT1 WT IC50: GeoMean IC50. The method, then: (§1) Determining live cell AKT1 E17K, AKT1 WT, and AKT2 target engagement by NanoBRET competitive probe displacement. Live cell target engagement assays were performed as described (Vasta, J. D. et al. Cell Chem Biol 2018, 25(11), 206-214). Briefly, HEK293 cells were transfected with plasmids encoding kinase-NanoLuciferase fusion proteins overnight. Cells were then treated with serial dilutions of compound and an ˜EC50 concentration of fluorescently-tagged ATP-competitive tracer (Promega). After incubation for 2 h at 37° C., luciferase substrate and extracellular luciferase inhibitor were added to all wells, and luminescent intensity at 460 nm and 600 nm were measured on a multimode plate-reader. The ratio of E600/E460 was calculated to give the tracer engagement signal (BRET). IC50 values were calculated by fitting BRET values to a log(inhibitor) vs. response Hill equation.
In general terms: BRET reads energy transfer from a luciferase to a nearby fluorophore.

The next experiment addresses T2, AKT2 (Homo sapiens, UniProt P31751).
T2 construct: expressed in transfected cells; host or cells: HEK293
The experiment is described as follows: Live cell target engagement by NanoBRET competitive probe displacement, AKT2. The conditions noted are these: transfected HEK293 cells, 2 h at 37° C., read-out: AKT2 IC50: GeoMean IC50. The class given is binding. The method, then: as §1

A further experiment addresses T3, AKT1 E17K (Homo sapiens, UniProt P31749, E17K).
T3 construct: expressed in transfected cells; host or cells: HEK293
The experiment is described as follows: Live cell target engagement by NanoBRET competitive probe displacement, AKT1 E17K. The experiment is classed as binding. The following applies: transfected HEK293 cells, 2 h at 37° C., read-out: AKT1 E17K IC50: GeoMean IC50. The protocol: as §1

T1 sequence (P31749 whole entry): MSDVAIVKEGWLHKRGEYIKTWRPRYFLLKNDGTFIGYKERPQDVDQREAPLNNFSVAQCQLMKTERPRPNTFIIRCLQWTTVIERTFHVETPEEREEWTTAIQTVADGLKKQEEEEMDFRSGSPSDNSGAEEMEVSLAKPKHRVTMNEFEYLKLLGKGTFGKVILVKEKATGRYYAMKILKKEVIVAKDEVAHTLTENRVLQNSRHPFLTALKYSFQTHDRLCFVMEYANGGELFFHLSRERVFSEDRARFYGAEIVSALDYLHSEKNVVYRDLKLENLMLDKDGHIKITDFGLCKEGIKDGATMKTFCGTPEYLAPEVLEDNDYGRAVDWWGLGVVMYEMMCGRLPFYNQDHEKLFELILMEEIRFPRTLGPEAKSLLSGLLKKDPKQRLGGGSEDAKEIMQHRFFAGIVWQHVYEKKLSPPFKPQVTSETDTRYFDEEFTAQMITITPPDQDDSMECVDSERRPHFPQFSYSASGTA
T3 sequence (P31749 whole entry E17K): as the sequence (P31749 whole entry) above, with E17K counted along it
T2 sequence (P31751 whole entry): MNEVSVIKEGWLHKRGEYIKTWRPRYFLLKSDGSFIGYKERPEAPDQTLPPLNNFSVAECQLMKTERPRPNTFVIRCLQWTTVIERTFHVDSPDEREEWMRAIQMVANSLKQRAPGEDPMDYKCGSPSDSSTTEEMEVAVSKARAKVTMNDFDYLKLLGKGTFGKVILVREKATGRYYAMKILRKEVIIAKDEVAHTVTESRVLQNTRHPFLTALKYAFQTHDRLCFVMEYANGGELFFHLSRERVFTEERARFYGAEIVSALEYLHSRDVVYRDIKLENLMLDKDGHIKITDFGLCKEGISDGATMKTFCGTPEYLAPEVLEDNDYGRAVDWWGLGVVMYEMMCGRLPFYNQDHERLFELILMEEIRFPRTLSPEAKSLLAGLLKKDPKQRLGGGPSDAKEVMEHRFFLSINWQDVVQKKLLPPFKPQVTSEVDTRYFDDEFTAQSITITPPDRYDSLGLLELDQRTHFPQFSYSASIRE

On to `Nc1ncccc1-c1nc2c(C3CC3)cc(-n3cccn3)nc2n1-c1ccc2c(c1)CC[C@@H]2NC(=O)c1ccc(O)c(C=O)c1` [Example 230, N-[(1S)-5-[2-(2-aminopyridin-3-yl)-7-cyclopropyl-5-(pyrazol-1-yl)imidazo[4,5-b]pyridin-3-yl]-2,3-dihydro-1H-inden-1-yl]-3-formyl-4-hydroxybenzamide], for which the IC50 lay within 100 to 2000 nM in experiment [1], 10 to 100 nM at AKT1 WT, 100 to 2000 nM at AKT2 and 10 to 100 nM on AKT1 E17K.

As to `Nc1ncccc1-c1nc2ccc(-n3cccn3)nc2n1-c1ccc2c(c1)CC[C@@H]2NC(=O)Cc1ccc(C=O)c(O)c1F` [Example 216, (S)—N-(5-(2-(2-aminopyridin-3-yl)-5-(1H-pyrazol-1-yl)-3H-imidazo[4,5-b]pyridin-3-yl)-2,3-dihydro-1H-inden-1-yl)-2-(2-fluoro-4-formyl-3-hydroxyphenyl)acetamide; trifluoroacetic acid], the IC50 was in the range of 100 to 2000 nM in experiment [1], 100 to 2000 nM at AKT1 WT, 100 to 2000 nM at AKT2 and 10 to 100 nM on AKT1 E17K.

Take `COc1cc(C(=O)N[C@H]2CCc3cc(-n4c(-c5cccnc5N)nc5ccc(-n6cccn6)nc54)ccc32)cc(C=O)c1O` [Example 182, N-[(1S)-5-[2-(2-aminopyridin-3-yl)-5-(pyrazol-1-yl)imidazo[4,5-b]pyridin-3-yl]-2,3-dihydro-1H-inden-1-yl]-3-formyl-4-hydroxy-5-methoxybenzamide]: the IC50 in experiment [1] was in the range of 100 to 2000 nM; on AKT1 WT, 10 to 100 nM; at AKT2, 100 to 2000 nM; at AKT1 E17K, 10 to 100 nM.

On to `N#Cc1cnn(-c2ccc3nc(-c4cccnc4N)n(-c4ccc5c(c4)CC[C@@H]5NC(=O)c4ccc(O)c(C=O)c4)c3n2)c1` [Example 90, N-[(1S)-5-[2-(2-aminopyridin-3-yl)-5-(4-cyanopyrazol-1-yl)imidazo[4,5-b]pyridin-3-yl]-2,3-dihydro-1H-inden-1-yl]-3-formyl-4-hydroxybenzamide], for which the IC50 in experiment [1] was 100 to 2000 nM; at AKT1 WT, 100 to 2000 nM; at AKT2, 100 to 2000 nM; on AKT1 E17K it was 10 to 100 nM.

For the molecule `Nc1ncccc1-c1nc2ccc(-n3cccn3)nc2n1-c1ccc2c(c1)CC[C@@H]2NC(=O)c1cc(C=O)c(O)cc1O` [Example 159, (S)—N-(5-(2-(2-aminopyridin-3-yl)-5-(1H-pyrazol-1-yl)-3H-imidazo[4,5-b]pyridin-3-yl)-2,3-dihydro-1H-inden-1-yl)-5-formyl-2,4-dihydroxybenzamide], the IC50 in experiment [1] is 100 to 2000 nM; at AKT1 WT, 10 to 100 nM; on AKT2 it was 100 to 2000 nM; on AKT1 E17K, 10 to 100 nM.

On to `N#Cc1cc(-n2cccn2)nc2c1nc(-c1cccnc1N)n2-c1ccc2c(c1)CC[C@@H]2NC(=O)c1ccc(O)c(C=O)c1` [Example 209, N-[(1S)-5-[2-(2-aminopyridin-3-yl)-7-cyano-5-(pyrazol-1-yl)imidazo[4,5-b]pyridin-3-yl]-2,3-dihydro-1H-inden-1-yl]-3-formyl-4-hydroxybenzamide], for which the IC50 in experiment [1] was 10 to 100 nM; at AKT1 WT it was 10 to 100 nM; on AKT2, 100 to 2000 nM; on AKT1 E17K, 10 to 100 nM.

As for `Cc1cc(C)c2nc(-c3cccnc3N)n(-c3ccc4c(c3)CC[C@@H]4NC(=O)c3ccc(O)c(C=O)c3)c2n1` [Example 69, N-[(1S)-5-[2-(2-aminopyridin-3-yl)-5,7-dimethylimidazo[4,5-b]pyridin-3-yl]-2,3-dihydro-1H-inden-1-yl]-3-formyl-4-hydroxybenzamide], the IC50 in experiment [1] was 100 to 2000 nM; at AKT1 WT, 100 to 2000 nM; on AKT2, ≥ 2000 nM; on AKT1 E17K, 10 to 100 nM.

In the case of `Cc1nnc(-c2ccc3nc(-c4cccnc4N)n(-c4ccc5c(c4)CC[C@@H]5NC(=O)c4ccc(O)c(C=O)c4)c3n2)s1` [Example 203, N-[(1S)-5-[2-(2-aminopyridin-3-yl)-5-(5-methyl-1,3,4-thiadiazol-2-yl)imidazo[4,5-b]pyridin-3-yl]-2,3-dihydro-1H-inden-1-yl]-3-formyl-4-hydroxybenzamide], the IC50 was in the range of 100 to 2000 nM in experiment [1], 10 to 100 nM on AKT1 WT, 100 to 2000 nM on AKT2 and 10 to 100 nM on AKT1 E17K.

As for `Nc1ncccc1-c1nc2ccc(-n3cccn3)nc2n1-c1ccc2c(c1)CC[C@@H]2NC(=O)c1cc(F)c(O)c(C=O)c1` [Example 81, N-[(1S)-5-[2-(2-aminopyridin-3-yl)-5-(pyrazol-1-yl)imidazo[4,5-b]pyridin-3-yl]-2,3-dihydro-1H-inden-1-yl]-3-fluoro-5-formyl-4-hydroxybenzamide], the IC50 was 100 to 2000 nM in experiment [1], 10 to 100 nM at AKT1 WT, 100 to 2000 nM at AKT2 and 10 to 100 nM at AKT1 E17K.

`Nc1ncccc1-c1nc2ccc(N3CCOCC3)nc2n1-c1ccc2c(c1)CC[C@@H]2NC(=O)c1ccc(O)c(C=O)c1` [Example 42, N-[(1S)-5-[2-(2-aminopyridin-3-yl)-5-(morpholin-4-yl)imidazo[4,5-b]pyridin-3-yl]-2,3-dihydro-1H-inden-1-yl]-3-formyl-4-hydroxybenzamide]: the IC50 in experiment [1] fell in the range of 100 to 2000 nM; at AKT1 WT it was 100 to 2000 nM; on AKT2, 100 to 2000 nM; on AKT1 E17K it was 10 to 100 nM.

As to `Nc1ncccc1-c1nc2ccc(-n3cccn3)nc2n1-c1ccc2c(c1)CC[C@@H]2N1CCc2cc(O)c(C=O)cc2C1=O` [Example 177, 2-[(1S)-5-[2-(2-aminopyridin-3-yl)-5-(pyrazol-1-yl)imidazo[4,5-b]pyridin-3-yl]-2,3-dihydro-1H-inden-1-yl]-6-hydroxy-1-oxo-3,4-dihydroisoquinoline-7-carbaldehyde], the IC50 in experiment [1] was ≥ 2000 nM; at AKT1 WT it was ≥ 2000 nM; at AKT2, 100 to 2000 nM; at AKT1 E17K it was ≥ 2000 nM.

Regarding `Nc1ncccc1-c1nc2ccc(-n3cccn3)nc2n1-c1ccc2c(c1)CC[C@@H]2NC(=O)c1cc(C=O)c(O)cc1-n1cccn1` [Example 205, N-[(1S)-5-[2-(2-aminopyridin-3-yl)-5-(pyrazol-1-yl)imidazo[4,5-b]pyridin-3-yl]-2,3-dihydro-1H-inden-1-yl]-5-formyl-4-hydroxy-2-(pyrazol-1-yl)benzamide], the IC50 in experiment [1] lay within 100 to 2000 nM; on AKT1 WT, 10 to 100 nM; at AKT2 it was 100 to 2000 nM; on AKT1 E17K, 10 to 100 nM.

Regarding `Nc1ncccc1-c1nc2ccc(-n3cccn3)nc2n1-c1ccc2c(c1)C(O)C[C@@H]2NC(=O)c1ccc(O)c(C=O)c1` (single isomer, unassigned) [Example 98], the IC50 in experiment [1] was in the range of 100 to 2000 nM; at AKT1 WT it was 10 to 100 nM; on AKT2, 100 to 2000 nM; at AKT1 E17K, 10 to 100 nM.

Consider `Cc1coc(-c2ccc3nc(-c4cccnc4N)n(-c4ccc5c(c4)CC[C@@H]5NC(=O)c4ccc(O)c(C=O)c4)c3n2)n1` [Example 178, N-[(1S)-5-[2-(2-aminopyridin-3-yl)-5-(4-methyl-1,3-oxazol-2-yl)imidazo[4,5-b]pyridin-3-yl]-2,3-dihydro-1H-inden-1-yl]-3-formyl-4-hydroxybenzamide], for which the IC50 fell in the range of 10 to 100 nM in experiment [1], 10 to 100 nM at AKT1 WT, 100 to 2000 nM on AKT2 and 10 to 100 nM on AKT1 E17K.
